Data as given in US9573961B2, “Inhibitors of the renal outer medullary potassium channel” (Merck Sharp & Dohme Corp., priority 2012, dated 2017).
Where two headings read alike, the source gives them in different places.

How the values were obtained:
[1] = molecular target: Kir1.1 (ROMK1) (Homo sapiens (Human), UniProt P48048); test: Electrophysiology Assay (whole cell voltage clamp, IonWorks Quattro); assay type: cell-based; details: block during voltage step to 0 mV
Outline: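 CHO cells stably expressing the channel, induced overnight with 1 mM sodium butyrate, were recorded in amphotericin-perforated patch mode. The test pulse was a 100 ms step to 0 mV from −70 mV, then a −70 to +70 mV ramp, applied before and after a 6 min compound incubation. Current amplitudes were compared.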

[2] = molecular target: hROMK (hKir1.1) (Homo sapiens (Human), UniProt P48048); test: Thallium Flux Assay (ROMK channel functional thallium flux, FLIPR-Tetra); assay type: cell-based; details: read-out: Thallium Flux IC50
Experimental: Cell Culture Conditions—HEK293 cells stably expressing hROMK (hKir1.1) were grown at 37° C. in a 10% CO2 humidified incubator in complete growth media: Dulbecco's Modified Eagle Medium supplemented with non-essential amino acids, Penicillin/Streptomycin/Glutamine, G418 and FBS. At >80% confluency, aspirate the media from the flask and rinse with 10 mL Calcium/Magnesium-free PBS. […] To dislodge the cell, gently bang the side of the flask with your hand. Triturate the cells completely and then transfer the cells to 25 mL complete media. Centrifuge at 1,500 rpm for 6 min followed by resuspension in complete growth media and determine cell concentration. […] Under ideal growth conditions and appropriate tissue culture practices, this cell line is stable for 40-45 passages.
FluxOR Kit Components (Invitrogen F10017) • FluxOR™ Reagent (Component A) • FluxOR™ Assay Buffer (Component B)—10× Concentrate • PowerLoad™ Concentrate (Component C)—100× Concentrate • Probenecid (Component D)—Lyophilized sample is kept at −20° C. Water soluble, 100× after solubilization in 1 mL water. […] Store at 4° C. • Thallium sulfate (Tl2SO4) Concentrate (Component G)—50 mM in water. Store at 4° C. • DMSO (dimethyl sulfoxide, Component H)—1 mL (100%)
Can be stored at room temperature • Stimulant Buffer (prepared at 5× final concentration in 1× FluxOR™ Chloride-Free Buffer): 7.5 mM Thallium sulfate and 0.75 mM Potassium sulfate (to give a final assay concentration of 3 mM Thallium/0.3 mM Potassium). Store at 4° C. when not in use. If kept sterile, this solution is good for months.
Assay Protocol—The ROMK channel functional thallium flux assay is performed in 384 wells, using the FLIPR-Tetra instrument. HEK-hKir1.1 cells are seeded in Poly-D-Lysine microplates and kept in a 37° C.-10% CO2 incubator overnight. On the day of the experiment, the growth media is replaced with the FluxOR™ reagent loading buffer and incubated, protected from light, at ambient temperature (23-25° C.) for 90 min. The loading buffer is replaced with assay buffer±test compound followed by 30 min incubation at ambient temperature, where the Thallium/Potassium stimulant is added to the microplate.
Step Protocol • 1. Seed HEK-hKir1.1 cells (50 μl at 20,000 cells/well) in 384-well PDL coated Microplates • 2. Allow cells to adhere overnight in humidified 37° C./10% CO2 incubator • 3. Completely remove cell growth media from microplate and replace with 25 μl loading buffer • 4. Incubate Microplate at room temperature, protected form light, for 90 min • 5. Remove loading buffer and replace with 25 μl 1× Assay Buffer±test compound. • 6. Incubate microplate at room temperature, protected from light, for 30 min • 7. […] Excitation=400 nm, Emission=460 & 580 nm. Collect data for ˜10 min.
Data Calculation—The fluorescence intensity of wells containing 3 μM of a standard control ROMK inhibitor of the present invention is used to define the ROMK-sensitive component of thallium flux. Fluorescence in the presence of test compounds is normalized to control values to provide % fluorescence change.

[3] = Electrophysiology IC50, Chinese hamster ovary cells stably expressing Kir1.1
[4] = HEK293 cells stably expressing hROMK (hKir1.1)
[5] = Chinese hamster ovary cells stably expressing Kir1.1, read-out: Electrophysiology IC50

Chain of hROMK (hKir1.1) (P48048 whole entry): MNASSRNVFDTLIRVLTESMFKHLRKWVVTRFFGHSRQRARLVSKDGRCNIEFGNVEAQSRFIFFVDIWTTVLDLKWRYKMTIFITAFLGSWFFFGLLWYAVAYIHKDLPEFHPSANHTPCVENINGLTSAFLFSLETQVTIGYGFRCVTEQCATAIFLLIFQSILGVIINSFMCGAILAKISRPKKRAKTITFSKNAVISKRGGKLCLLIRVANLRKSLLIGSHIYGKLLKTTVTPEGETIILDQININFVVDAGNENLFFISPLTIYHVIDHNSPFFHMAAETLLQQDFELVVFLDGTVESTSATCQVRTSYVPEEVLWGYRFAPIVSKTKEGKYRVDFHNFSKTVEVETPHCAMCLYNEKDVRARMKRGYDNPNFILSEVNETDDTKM
Chain of Kir1.1 (ROMK1) (P48048 whole entry): as above

| Compound | IC50 [1, 3] [µM] | IC50 [2, 4] [µM] | IC50 [1, 5] [µM] | IC50 [2] [µM] |
| --- | --- | --- | --- | --- |
| Cc1c([C@@H]2CN3CCN(C(=O)Cc4ccc(-n5cnnn5)cc4)C[C@H]3CO2)csc1C#N [Example 39, 3-methyl-4-[(3R,9aS)-8-{[4-(1H-tetrazol-1-yl)phenyl]acetyl}octahydropyrazino[2,1-c][1,4]oxazin-3-yl]thiophene-2-carbonitrile] | 0.06 | 0.06 |  |  |
| Cc1c([C@H]2CN3CCN(C(=O)Cc4ccc(-n5cnnn5)cc4)C[C@H]3CO2)csc1C#N [Example 40, 3-methyl-4-[(3S,9aS)-8-{[4-(1H-tetrazol-1-yl)phenyl]acetyl}octahydropyrazino[2,1-c][1,4]oxazin-3-yl]thiophene-2-carbonitrile] | 0.08 | 0.09 |  |  |
| Cc1c(C#N)cccc1[C@@H]1CN2CCN(C(=O)Cc3ccc(-n4cnnn4)cc3)C[C@H]2CO1 [Example 42, 2-methyl-3-[(3R,9aS)-8-{[4-(1H-tetrazol-1-yl)phenyl]acetyl}octahydropyrazino[2,1-c][1,4]oxazin-3-yl]benzonitrile] |  | 0.09 | 0.13 |  |
| Cc1c(C#N)cccc1[C@H]1CN2CCN(C(=O)Cc3ccc(-n4cnnn4)cc3)C[C@H]2CO1 [Example 43, 2-methyl-3-[(3S,9aS)-8-{[4-(1H-tetrazol-1-yl)phenyl]acetyl}octahydropyrazino[2,1-c][1,4]oxazin-3-yl]benzonitrile] |  | 0.14 | 0.17 |  |
| Cc1c([C@H]2CN3CCN(C(=O)C4Cc5ccc(-n6cnnn6)cc5C4)C[C@H]3CO2)ccc(F)c1C#N (stereo partly drawn) [Example 44, 6-fluoro-2-methyl-3-[(3S,9aS)-8-{[5-(1H-tetrazol-1-yl)-2,3-dihydro-1H-inden-2-yl]carbonyl}octahydropyrazino[2,1-c][1,4]oxazin-3-yl]benzonitrile] |  | 0.37 | 0.16 |  |
| Cc1c([C@@H]2CN3CCN(C(=O)C(C)c4ccc(-n5cnnn5)cc4)C[C@H]3CO2)ccc(F)c1C#N (stereo partly drawn) [Example 45, 6-fluoro-2-methyl-3-[(3R,9aS)-8-{2-[4-(1H-tetrazol-1-yl)phenyl]propanoyl}octahydropyrazino[2,1-c][1,4]oxazin-3-yl]benzonitrile] |  | 0.33 | 0.21 |  |
| Cc1c([C@H]2CN3CCN(C(=O)Cc4cccc(-n5cnnn5)c4)C[C@H]3CO2)ccc(F)c1C#N [Example 46, 6-fluoro-2-methyl-3-[(3S,9aS)-8-{[3-(1H-tetrazol-1-yl)phenyl]acetyl}octahydropyrazino[2,1-c][1,4]oxazin-3-yl]benzonitrile] |  | 0.24 | 0.14 |  |
| Cc1c([C@@H]2CN3CCN(C(=O)Cc4cccc(-n5cnnn5)c4)C[C@H]3CO2)ccc(F)c1C#N [Example 47, 6-fluoro-2-methyl-3-[(3R,9aS)-8-{[3-(1H-tetrazol-1-yl)phenyl]acetyl}octahydropyrazino[2,1-c][1,4]oxazin-3-yl]benzonitrile] |  | 0.3 | 0.09 |  |
| Cc1c(C2CN3CCCN(C(=O)Cc4ccc(-n5cnnn5)cc4)CC3CO2)ccc2c1COC2=O (stereo not shown) [Example 50, 4-methyl-5-(9-{[4-(1H-tetrazol-1-yl)phenyl]acetyl}octahydro-1H-[1,4]oxazino[4,3-a][1,4]diazepin-3-yl)-2-benzofuran-1(3H)-one] | 0.18 | 0.74 |  |  |
| Cc1c([C@@H]2CN3CCN(C(=O)Cc4c(F)cc(-n5cnnn5)cc4F)C[C@H]3CO2)ccc(F)c1C#N [Example 52, 3-[(3R,9aS)-8-{[2,6-difluoro-4-(1H-tetrazol-1-yl)phenyl]acetyl}octahydropyrazino[2,1-c][1,4]oxazin-3-yl]-6-fluoro-2-methylbenzonitrile] |  | 0.17 | 0.07 |  |
| Cc1c([C@@H]2CN3CCN(C(=O)Cc4c(F)cc(-n5cnnn5)cc4F)C[C@@H]3CO2)ccc(F)c1C#N [Example 53, 3-[(3R,9aR)-8-{[2,6-difluoro-4-(1H-tetrazol-1-yl)phenyl]acetyl}octahydropyrazino[2,1-c][1,4]oxazin-3-yl]-6-fluoro-2-methylbenzonitrile] |  | 0.18 | 0.11 |  |
| Cc1c([C@@H]2CN3CCN(C(=O)Cc4cc(F)c(-n5cnnn5)cc4F)C[C@@H]3CO2)ccc(F)c1C#N [Example 54, 3-[(3R,9aR)-8-{[2,5-difluoro-4-(1H-tetrazol-1-yl)phenyl]acetyl}octahydropyrazino[2,1-c][1,4]oxazin-3-yl]-6-fluoro-2-methylbenzonitrile] | 0.1 |  |  | 0.1 |
| Cc1c([C@@H]2CN3CCN(C(=O)Cc4cc(F)c(-n5cnnn5)cc4F)C[C@H]3CO2)ccc(F)c1C#N [Example 55, 3-[(3R,9aS)-8-{[2,5-difluoro-4-(1H-tetrazol-1-yl)phenyl]acetyl}octahydropyrazino[2,1-c][1,4]oxazin-3-yl]-6-fluoro-2-methylbenzonitrile] | 0.1 | 0.13 |  |  |
| Cc1c([C@@H]2CN3CCN(C(=O)Cc4cccc(-n5cnnn5)c4)C[C@@H]3CO2)ccc(F)c1C#N [Example 56, 6-fluoro-2-methyl-3-[(3R,9aR)-8-{[3-(1H-tetrazol-1-yl)phenyl]acetyl}octahydropyrazino[2,1-c][1,4]oxazin-3-yl]benzonitrile] |  | 0.2 | 0.06 |  |
| Cc1c([C@H]2CN3CCN(C(=O)Cc4cccc(-n5cnnn5)c4)C[C@@H]3CO2)ccc(F)c1C#N [Example 57, 6-fluoro-2-methyl-3-[(3S,9aR)-8-{[3-(1H-tetrazol-1-yl)phenyl]acetyl}octahydropyrazino[2,1-c][1,4]oxazin-3-yl]benzonitrile] |  | 0.14 | 0.05 |  |
| Cc1c([C@H]2CN3CCN(C(=O)Cc4cc(-n5cnnn5)ccc4F)C[C@@H]3CO2)ccc(F)c1C#N [Example 58, 6-fluoro-3-[(3S,9aR)-8-{[2-fluoro-5-(1H-tetrazol-1-yl)phenyl]acetyl}octahydropyrazino[2,1-c][1,4]oxazin-3-yl]-2-methylbenzonitrile] |  | 0.18 | 0.08 |  |
| Cc1c([C@@H]2CN3CCN(C(=O)Cc4cc(-n5cnnn5)ccc4F)C[C@@H]3CO2)ccc(F)c1C#N [Example 59, 6-fluoro-3-[(3R,9aR)-8-{[2-fluoro-5-(1H-tetrazol-1-yl)phenyl]acetyl}octahydropyrazino[2,1-c][1,4]oxazin-3-yl]-2-methylbenzonitrile] |  | 0.36 | 0.14 |  |
| Cc1c(CC(=O)N2CCN3C[C@@H](c4ccc(F)c(C#N)c4C)OC[C@H]3C2)cccc1-n1cnnn1 [Example 60, 6-fluoro-2-methyl-3-[(3R,9aR)-8-{[2-methyl-3-(1H-tetrazol-1-yl)phenyl]acetyl}octahydropyrazino[2,1-c][1,4]oxazin-3-yl]benzonitrile] |  | 0.44 | 0.42 |  |
| Cc1c(CC(=O)N2CCN3C[C@H](c4ccc(F)c(C#N)c4C)OC[C@H]3C2)cccc1-n1cnnn1 [Example 61, 6-fluoro-2-methyl-3-[(3S,9aR)-8-{[2-methyl-3-(1H-tetrazol-1-yl)phenyl]acetyl}octahydropyrazino[2,1-c][1,4]oxazin-3-yl]benzonitrile] |  | 0.34 | 0.24 |  |
| COc1ccc([C@H]2CN3CCN(C(=O)C4CCc5cc(-n6cnnn6)ccc54)C[C@H]3CO2)c(C)c1C#N (stereo partly drawn) [Example 62, 6-methoxy-2-methyl-3-[(3S,9aS)-8-{[5-(1H-tetrazol-1-yl)-2,3-dihydro-1H-inden-1-yl]carbonyl}octahydropyrazino[2,1-c][1,4]oxazin-3-yl]benzonitrile] |  | 0.2 | 0.65 |  |
